{"source": "patent US20230065158A1", "about": "“OXABICYCLOHEPTANES FOR TREATMENT OF SMALL CELL LUNG CANCER” (Lixte Biotechnology, Inc., priority 2021, published 2023)", "key": {"H524 cells [1]": {"system": "H524 cells", "experiment": "Cell Counting Kit-8 cytotoxicity and drug combination, H524", "protocol": "(§1) A Mann-Whitney U test was used for comparison between the normal and SCLC samples. FIG. 1B: IHC for PP2A was conducted on TMA tissue sections and images were captured at 4× or 20× using a 3D-Histech PANNORAMIC SCAN whole slide scanner (3D-Histech, Budapest, Hungary). […] TMAs were scored in normal (n=24) and tumor (n=79) cores on a scale from 0 (no staining/no protein expression) to 3+(strong staining/high protein expression). FIG. 1C: Summary bar graph of the average PP2A subunit staining. IHC staining intensity of normal and tumor cores. […] FIG. 1D: In order to compare the expression of PP2A subunits A and C, cell lysates from seven SCLC cell lines and HBEC 3KT (non-malignant cell line) were subjected to western blotting. FIG. 1E: PP2A activity was determined using a serine/threonine phosphatase activity assay (Millipore) after 24 h exposure to cantharidin (10 μM) and LB-100 (5 μM). […] The Cell Counting Kit-8 assay detected cell H524 and H69 cell viability. […] FIGS. 1I-1K: Graphs depict the mean+SEM of percent viability for cells (n=3). Colony formation assays were used to count the ability of H524 (FIGS. 11 and 1J) and H69 (FIGS. 1K and 1L) cells to form colonies. […] Representative images of colonies at 4× are shown under the graph (n=2).*p<0.05; **, p<0.01; *** p<0.001; ****, p<0.0001. Experiments were repeated in triplicate and representative data are shown."}, "H524 and H69 cells": {"system": "H524 and H69 cells", "experiment": "Colony formation assay", "type": "cell-based", "conditions": "both cell lines; H524/H69: LB-100 2.5/20 μM, carboplatin 4/20 μM, etoposide 3/30 μM", "protocol": "as §1"}, "H524 cells [2]": {"system": "H524 cells", "experiment": "Transendothelial extravasation assay through HUVEC monolayer, H524", "type": "cell-based", "conditions": "after 20 h of drug treatment", "protocol": "(§2) FIGS. 3A-3H depict SCLC cell invasion through HUVEC monolayer. FIGS. 3A-3D: Graphical representation of H524/H69 cell ability to disrupt a confluent HUVEC monolayer using an electrical substrate-impedance sensing system. Arrows indicate time point when cells were added. Inserts show mean values and SD for each group after 20 h of drug treatment. After treatment, cell viability was counted using an Auto T4 Cell Counter (Nexcelom Cellometer). […] Whole cell Pt accumulation. Graphical representation of LB-100 effect on platinum uptake by SCLC cells. Cells were pretreated with LB-100 (H524—5 μM; H69—20 μM) overnight, then treated with carboplatin for one or four hours (H524—10 μM; H69—30 μM). Whole cell pellet was used for platinum (Pt) measurement. Values are normalized to total protein concentration. FIGS. 3E and 3F: Panels show mean values and SD of Pt accumulation for each group. […] Effect of LB-100 on PP2A expression and apoptosis regulatory proteins in H524 and H69 cells. […]\n(§3) To discern the effect of LB100 on cell invasion, we tested the ability of SCLC cells to invade though a layer of endothelial cells (ECs). Toward this end, we measured the trans-endothelial monolayer resistance using an electrical substrate-impedance sensing system (Applied Biophysics, Troy, N.Y., USA), as previously described (24). […]"}, "H69 cells [3]": {"system": "H69 cells", "experiment": "Transendothelial extravasation assay through HUVEC monolayer, H69", "type": "cell-based", "conditions": "after 20 h of drug treatment", "protocol": "as §2, §3"}, "H69 cells [4]": {"system": "H69 cells", "experiment": "Seahorse XF Real-Time ATP rate assay, H69", "type": "cell-based", "conditions": "LB-100 10 μM, carboplatin 10 μM"}, "[5]": {"system": "H69 cells mouse xenograft", "experiment": "Subcutaneous H69 cells mouse xenograft", "type": "in vivo, Athymic nude mice", "conditions": "for tumor weight compared to vehicle-treated group: end of experiment", "protocol": "FIGS. 8A-8E depicts results of LB-100 activity alone and with carboplatin against H69 cells mouse xenograft. Tumor size (FIG. 8A) and body weights (FIG. 8B) were measured. Inhibition of tumor growth after LB-100 (*p<0.05), carboplatin (***p<0.001) and their combination (***p<0.001) were delivered via i.p. injections. P values show significant differences compared with vehicle group. FIG. 8C: Tumor images from vehicle and drug-treated groups. FIG. 8D: Tumor mass was measured at the end of experiment. […] FIG. 8E: Columns show total platinum (Pt) concentration in mouse tumors with carboplatin and LB-100/carboplatin treatments (n=3 as technical replicates) Pt mass was normalized to tumor total mass. Statistical analysis was performed using an ANOVA with Tukey post hoc-test (*p<0.05), carboplatin (**p<0.01).\nAnimal studies were performed according to an IACUC protocol approved by City of Hope National Medical Center Animal Care and Use Committee. Athymic nude mice (5-6 weeks of age) were purchased from NCI (Frederick, Md.). Mice were injected subcutaneously on their right flank with H69 cells suspended (2×106) in 100 μl of PBS and 100 μl of matrigel (BD Biosciences, San Jose, Calif.). Tumor growth was measured in two dimensions with caliper and when surface tumor was visible (45-50 mm2) mice were randomized in four groups as follow: vehicle (PBS, i.p. 3 times a week), LB100 (0.25 mg/kg, i.p. 3 times a week), carboplatin (50 mg/kg, i.p. 2 times a week) and drug combination (LB100/carboplatin i.p.) for 30 days. At the end of the study, the mice were euthanized by CO2 asphyxiation followed by cervical dislocation. Tumor tissues were excised, weighed, and subsequently fixed in 10% buffered formalin and embedded in paraffin for histological analysis."}, "H526 cells": {"system": "H526 cells", "experiment": "Cell Counting Kit-8 cytotoxicity, H526", "excerpt": "(§4) To determine specific cytotoxicity, we used Cell Counting Kit-8 (Dojindo Molecular Technologies, Rockville, Md.) as previously described (50)."}, "H446 cells": {"system": "H446 cells", "experiment": "Cell Counting Kit-8 cytotoxicity, H446", "excerpt": "as §4"}, "H146 cells": {"system": "H146 cells", "experiment": "Cell Counting Kit-8 cytotoxicity, H146", "excerpt": "as §4"}}, "note": "pIC50: −log10 of the molar value. Read-outs that look alike come from different tables or passages of the source."}
{"smiles": "C[NH+]1CCN(C(=O)C2C(C(=O)O)[C@H]3CC[C@@H]2O3)CC1", "note": "(stereo in doubt) [LB-100, 3-[(4-Methylpiperazin-1-yl)carbonyl]-7-oxabicyclo[2.2.1]heptane-2-carboxylic acid]", "values": [{"measurement": "pIC50", "setting": "H524 cells [1]; Homo sapiens, NCI-H524, 72 h, read-out: Cytotoxicity IC50, H524, 72 hours", "result": "> 5.10"}, {"measurement": "pIC50", "setting": "H524 cells [1]; human, 72 h", "result": 5.28}, {"measurement": "colony formation", "setting": "H524 and H69 cells", "result": "significantly reduced colony formation"}, {"measurement": "% change of HUVEC barrier disruption (transmigration)", "setting": "H524 cells [2]", "result": "16.9+2%"}, {"measurement": "% change of HUVEC barrier disruption (transmigration)", "setting": "H69 cells [3]", "result": "12.3 ± 0.92", "unit": "%"}, {"measurement": "drop of total ATP production rate", "setting": "H69 cells [4]", "result": 54, "unit": "%"}, {"measurement": "tumor weight compared to vehicle-treated group", "setting": "[5]", "result": "significant reduction in tumor weight"}, {"measurement": "tumor size", "setting": "[5]; i.p., 30 days", "result": "statistically significant reduction in tumor size"}, {"measurement": "pIC50", "setting": "H526 cells; Homo sapiens, NCI-H526, 72 h, read-out: Cytotoxicity IC50, H526", "result": "> 5.10"}, {"measurement": "pIC50", "setting": "H446 cells; Homo sapiens, NCI-H446, 72 h, read-out: Cytotoxicity IC50, H446", "result": "> 5.10"}, {"measurement": "pIC50", "setting": "H146 cells; Homo sapiens, NCI-H146, 72 h, read-out: Cytotoxicity IC50, H146", "result": "~4.70"}]}
{"smiles": "N.N.O=C([O-])C1(C(=O)[O-])CCC1.[Pt+2]", "note": "[Carboplatin, reference compound]", "values": [{"measurement": "pIC50", "setting": "H524 cells [1]; read-out: Cytotoxicity IC50, H524, 72 hours", "result": 5.09}, {"measurement": "colony formation", "setting": "H524 and H69 cells", "result": "significantly reduced colony formation"}, {"measurement": "% change of HUVEC barrier disruption (transmigration)", "setting": "H524 cells [2]", "result": "18.2 ± 0.4", "unit": "%"}, {"measurement": "% change of HUVEC barrier disruption (transmigration)", "setting": "H69 cells [3]", "result": "14.9 ± 1.24", "unit": "%"}, {"measurement": "drop of total ATP production rate", "setting": "H69 cells [4]", "result": 12, "unit": "%"}, {"measurement": "tumor weight compared to vehicle-treated group", "setting": "[5]", "result": "significant reduction in tumor weight"}, {"measurement": "pIC50", "setting": "H526 cells; read-out: Cytotoxicity IC50, H526, 72 hours", "result": 4.48}, {"measurement": "pIC50", "setting": "H446 cells; read-out: Cytotoxicity IC50, H446, 72 hours", "result": 4.58}, {"measurement": "pIC50", "setting": "H146 cells; read-out: Cytotoxicity IC50, H146, 72 hours", "result": 5.08}]}
